From ChEMBL document CHEMBL1151526, “3-Acetoxy-2,2-bi-1H-indol as a novel inhibitor of ATP binding to DnaA, the protein initiating chromosomal replication in escherichia coli” (Bioorg Med Chem Lett, 1994) come the findings set out here.

Structures are written as SMILES.

This assay in a line: Inhibition of [alpha-32P]ATP binding to DnaA protein purified from Escherichia coli.

One may read the IC50 as the concentration at which inhibition is half-maximal. A high value points to lower potency. For `CCOc1c(-c2cc3ccccc3[nH]2)[nH]c2ccccc12`, the concentration for half-maximal inhibition (IC50) amounted to 200 µM.

Take `CC(=O)Oc1c(-c2cc3ccccc3[nH]2)[nH]c2ccccc12`: the 50% inhibitory concentration (IC50) was 40 µM.

In turn, `O=C1C(c2c[nH]c3ccccc23)=C(c2c[nH]c3ccccc23)C(=O)N1Cc1ccccc1` had an IC50 greater than 10000 µM.

Compound `CC(=O)Oc1c(-c2c(C(C)=O)c3ccccc3n2C(C)=O)[nH]c2ccccc12` returned an IC50 of 1500 µM.

Consider `CC(c1ccccc1)N1C(=O)c2c(c3c4ccccc4[nH]c3c3[nH]c4ccccc4c23)C1=O` (stereo not given), for which the IC50 was determined as 5000 µM.

`Nc1ncnc2c1ncn2[C@@H]1O[C@H](CO)[C@@H](O)[C@H]1O` [ADENOSINE] had an IC50 greater than 10000 µM.

The compound `CN(C)CCCn1cc(C2=C(c3c[nH]c4ccccc34)C(=O)NC2=O)c2ccccc21` [GF-109203] came in with a half-inhibitory concentration (IC50) of 3000 µM.

Compound `O=C1/C(=C2\Nc3ccccc3C2=O)Nc2ccccc21` [INDIGO] had an IC50 of 200 µM.

With `c1ccc2[nH]ccc2c1` [INDOLE], the IC50 was greater than 10000 µM.

As to `O=C1NC(=O)C(c2c[nH]c3ccccc23)=C1c1c[nH]c2ccccc12` [RO-316233], the IC50 was determined as 1000 µM.
